From patent US7250157B2, “Dermatological compositions and methods” (Applied Genetics Incorporated Dermatics, priority 1996, dated 2007)
Where “and” joins values, the source holds several entries; their conditions need not be identical. Equal entries are not always repeated. Where two headings read alike, the source gives them in different places. Each block holds one compound with its values, some of them ahead of it.

What was measured:
[1] = system: American short-haired guinea pigs; test: Topical melanogenesis (pigmentation rating) in guinea pigs; assay type: in vivo, guinea pig; parameters: Pigmentation Rating / Pigmentation Rating Background Corrected: scale not given here; details: for relative melanogenesis rating (mean ±SE), scale 0-4: 25 μl twice per day for 5 days, rated two weeks after
In short: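 Agents applied topically to depilated back sites of American short-haired guinea pigs; PG, 2,3-BD and 1,2-cis-CPD at full strength, 3,3-M-1,2-BD at 4M in ethanol. Pigmentation subjectively rated two weeks after cessation of treatment, corrected for control-spot background, normalized to 1M and to 1,2-PG.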

[2] = system: Cloudman S91 mouse melanoma cell line; test: Melanin content of S91 cells after treatment with test compound; assay type: cell-based
In short: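 Mouse S91 melanoma cells seeded at 10^5 cells/35 mm dish in 10% calf serum and cultured with test compound 6 days at 37 °C, 5% CO2. Differentiation scored microscopically, trypsin detachment time recorded, cells counted; melanin measured by absorbance at 475 nm and expressed as pg melanin/cell.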

[3] = system: Normal human epidermal melanocytes (NHEMs); test: Melanin induction in normal human epidermal melanocytes; assay type: cell-based
Procedure: Normal human epidermal melanocytes (NHEMs) were examined for induction of melanogenesis using cells and media from Clonetics Corporation (San Diego, Calif.). Cells were cultured exactly as specified by the supplier.

[4] = system: tyrosinase activity in S91 mouse melanoma cells; test: Induction of tyrosinase activity in S91 cells; details: for Tyrosinase dpm/hr 10^3 Cells / Tyrosinase dpm/hr ug Protein: 300 mM PG-1,2, 25 mM 3,3-M-1,2-BD, 50 mM 1,2-cs-CPD, 0.5 mM 2,3-Pyd, 0.1 mM IBMX, mean ±SE
[5] = system: Tyrosinase in normal human epidermal melanocytes (NHEM); test: Tyrosinase in NHEM (in situ, cellular, extracellular particulate, media); assay type: cell-based; details: for Tyrosinase 200 g Partic, relative to controls (in parentheses) / Tyrosinase 17300 g Partic, relative to controls (in parentheses) / Tyrosinase Cellular, relative to controls (in parentheses) / Tyrosinase In Situ, relative to controls (in parentheses) / Tyrosinase Media, relative to controls (in parentheses): pair of replicates
Procedure: Tyrosinase was measured in normal human epidermal melanocytes (NHEM) using procedures identical to those described for S91 cells (Example 6), […], 1600×g, or 17,300×g for analysis of tyrosinase activity in the extracellular exported melanosomal particulate fraction, and in the resultant supernatant media fraction. In some cases (Table 11), tyrosinase was also measured by an in situ assay wherein radiolabelled tyrosine was added directly to freshly replaced media of NHEM for a period of 24 hrs following a 5 day treatment period (Abdel-Malek, et al., 1992, J. Cell. Physiol. 150:416-425). […] Both 5 mM 5-NBene-2,2-DM and 25 mM 3,3-M-1,2-BD induced more tyrosinase in each of these assays and fractions than did 1,2-PG. IBMX (3-isobutyl-1-methyl-xanthine) provided as a positive control, induced as much tyrosinase as 5 mM 5-NBene-2,2-DM in the in situ assay, but less in cellular, extracellular particulate and media fractions (Table 11).

[6] = No Penetration Enhancer, concentrations as E85
[7] = 5 day treatment, 300 mM 1,2-PG, 25 mM 3,3-M-1,2-BD, 5 mM 5-NBene-2,2-DM, 0.1 mM IBMX
[8] = Experiment 1, 5 mM 5-NBene-2,2-DM
[9] = Experiment 2, 5 mM 5-NBene-2,2-DM
[10] = Experiment 3, 5 mM 5-NBene-2,2-DM
[11] = 5 day treatment, concentrations as E130

Structure (SMILES): CC(O)CO (stereo not drawn) [1,2-propanediol, 1,2-Propanediol (Propylene Glycol)]
Pigmentation Rating Normalized to 1,2-PG [1, 6]: 1.0 ± 0.1 | Pigmentation Rating Normalized to 1M [1, 6]: 0.015 ± 0.002 | Pigmentation Rating Background Corrected ([1]; No Penetration Enhancer, corrected for Nair control, concentrations as E85): 0.21 ± 0.03 | Pigmentation Rating ([1]; No Penetration Enhancer, sites c and d, 13.61M 1,2-PG, 11.0M 2,3-M-2,3-BD, 11.3M 2-M-1,3-PG, 8.7M 1,2-cs-CPD, 4.0M 3,3-M-1,2-BD): 0.29 ± 0.09 | melanogenesis in guinea pigs (in words) ([1]; same relative body position): significant melanogenesis relative to depilitory treated controls | relative melanogenesis rating (mean ±SE), scale 0-4 ([1]; site a (head), PG 13.6M, 2,3-BD 10.95M, 1,2-cs-CPD 10.7M full strength, 3,3-M-1,2-BD 4M in ethanol): 1.04 ± 0.21 | relative melanogenesis rating (mean ±SE), scale 0-4 ([1]; site b, full strength solutions, listed as PG): 0.50 ± 0.25 and 0.83 ± 0.17 | relative melanogenesis rating (mean ±SE), scale 0-4 ([1]; site c, full strength, 3,3-M-1,2-BD 4M in ethanol): 0.25 ± 0.09^1 | relative melanogenesis rating (mean ±SE), scale 0-4 ([1]; site d (tail), full strength solutions): 0.33 ± 0.16^1 | pigmentation response versus control (Nair or 2% 2P treated) spots ([1]; sites towards tail, 13.61M 1,2-PG, 10.6M 1,2-PG/2% 2P, 11M 2,3-dimethyl-2,3-butanediol): not significantly different from control | Concentration Required for ≧2-fold Melanin Induction in S91 Cells [2]: 150 mM | pg Melanin/Cell ([2]; 50 mM): 15.6 pg Melanin/Cell | ug Melanin ([2]; 50 mM): 1.31 µg | pg Melanin/Cell ([2]; 150 mM): 24.0 pg Melanin/Cell | ug Melanin ([2]; 150 mM): 1.73 µg | pg Melanin/Cell ([2]; 1% (136 mM), 6 days): 9.4 pg Melanin/Cell | ug Melanin ([2]; 1% (136 mM), 6 days): 4.88 µg | pg Melanin/Cell ([2]; 2% (272 mM), 6 days): 12.5 pg Melanin/Cell | ug Melanin ([2]; 2% (272 mM), 6 days): 6.24 µg | pg Melanin/Cell ([2]; 3% (408 mM), 6 days): 20.2 pg Melanin/Cell | ug Melanin ([2]; 3% (408 mM), 6 days): 4.03 µg | pg Melanin/Cell ([2]; 4% (544 mM), 6 days): 40.1 pg Melanin/Cell | ug Melanin ([2]; 4% (544 mM), 6 days): 4.01 µg | pg Melanin/Cell ([2]; 5% (680 mM), 6 days): 28.9 pg Melanin/Cell | ug Melanin ([2]; 5% (680 mM), 6 days): 2.31 µg | Concentration Required for ≧1.5-fold Melanin Induction in NHEMs [3]: 150 mM | Tyrosinase dpm/hr 10^3 Cells ([4]; 5 mM 5-NBene-2,2-DM): 292 ± 104 dpm/hr/10^3 Cells | Tyrosinase dpm/hr ug Protein ([4]; 5 mM 5-NBene-2,2-DM): 1003 ± 370 dpm/hr/ug Protein | Tyrosinase In Situ [5, 7]: 17.2 dpm/hr/10^3 Cells and 16.8 dpm/hr/10^3 Cells | Tyrosinase Cellular ([5]; 5 day treatment, concentrations as E130, listed as 1,2-PG): 10875 dpm/hr/10^3 Cells and 10247 dpm/hr/10^3 Cells | Tyrosinase Media ([5]; Post 17300 X g, 5 day treatment, concentrations as E130, listed as 1,2-PG): 2123 dpm/hr/10^3 Cells and 1864 dpm/hr/10^3 Cells | Tyrosinase 200 g Partic, relative to controls (in parentheses) ([5]; concentrations as E130): (1.98X) | Tyrosinase 17300 g Partic, relative to controls (in parentheses) ([5]; concentrations as E130): (1.50X) | Tyrosinase Cellular, relative to controls (in parentheses) ([5]; concentrations as E130): (1.03) X | Tyrosinase In Situ, relative to controls (in parentheses) ([5]; concentrations as E130): (1.07X) | Tyrosinase Media, relative to controls (in parentheses) ([5]; concentrations as E130): (1.28X)

Fold Induction of Tyrosinase Relative to Controls ([4]; 0.5 mM (Table 16)): 2.8X | Fold Induction of Tyrosinase Relative to Controls ([4]; 1 mM (Table 15)): 4.0X | Fold Induction of Tyrosinase Relative to Controls ([4]; 1 mM (Table 16)): 3.6X | Fold Induction of Tyrosinase Relative to Controls ([4]; 2 mM (Table 15)): 12.9X | Fold Induction of Tyrosinase Relative to Controls ([4]; 2.5 mM (Table 16)): 14.5X | Fold Induction of Tyrosinase Relative to Controls ([4]; 5 mM (Table 15)): 41.9X | Fold Induction of Tyrosinase Relative to Controls ([4]; 5 mM (Table 16)): 61.6X
Structure (SMILES): OCC1(CO)CC2C=CC1C2 (stereo not drawn) [5-NBene-2,2-DM, 5-norbornene-2,2-dimethanol]
Pigmentation Ratings (X ± SE; n = 6; scale 0 to +4) ([1]; spot a (anterior), 8.7M 1,2-cis-CPD in 20% ETOH, 1M 5-NBene-2,2-DM in 8.5 M propylene glycol, 2% 2-pyrrolidone, 20% ETOH, 1M 2,3-cs/ex PD in 50% ETOH): 1.75 ± 0.43 | Pigmentation Ratings (X ± SE; n = 6; scale 0 to +4) ([1]; spot b, formulations as E220): 1.25 ± 0.21 | Pigmentation Ratings (X ± SE; n = 6; scale 0 to +4) ([1]; spot c, formulations as E220): 0.83 ± 0.15 | Pigmentation Ratings (X ± SE; n = 6; scale 0 to +4) ([1]; spot d (posterior), formulations as E220): 0.29 ± 0.08 | Concentration Required for ≧2-fold Melanin Induction in S91 Cells [2]: 5 mM | Concentration Required for ≧1.5-fold Melanin Induction in NHEMs ([3]; listed as 5-Norbornene-2,2-Dimethanol): 5 mM | Concentration Required for ≧1.5-fold Melanin Induction in NHEMs ([3]; listed as 5-norbornene-2,2-dimethanol): ≤ 5 mM | Tyrosinase Relative to Control ([4]; 5 mM 5-NBene-2,2-DM): 8.2X | Tyrosinase dpm/hr/ug Protein ([4]; 5 mM 5-NBene-2,2-DM): 3273 dpm/hr/ug Protein | Tyrosinase dpm/hr/10^3 Cells, Avg. ([4]; 5 mM 5-NBene-2,2-DM, average of two): 4381 dpm/hr/10^3 Cells | Tyrosinase dpm/hr/10^3 Cells ([4]; 5 mM 5-NBene-2,2-DM, single replicates): 4515 dpm/hr/10^3 Cells and 4247 dpm/hr/10^3 Cells | Tyrosinase dpm/hr 10^3 Cells ([4]; 5 mM 5-NBene-2,2-DM): 707 ± 54 dpm/hr/10^3 Cells | Tyrosinase dpm/hr ug Protein ([4]; 5 mM 5-NBene-2,2-DM): 1643 ± 105 dpm/hr/ug Protein | % of 5-NBene-2,2-DM [4, 8]: 100% | Tyrosinase induction dpm/hr/10^3 cells [4, 8]: 5018 ± 415^1 dpm/hr/10^3 cells | % of 5-NBene-2,2-DM [4, 9]: 100% | Tyrosinase induction dpm/hr/10^3 cells [4, 9]: 5640 ± 323 dpm/hr/10^3 cells | % of 5-NBene-2,2-DM [4, 10]: 100% | Tyrosinase induction dpm/hr/10^3 cells [4, 10]: 6388 ± 460^1 dpm/hr/10^3 cells | Tyrosinase In Situ [5, 7]: 24.5 dpm/hr/10^3 Cells and 25.4 dpm/hr/10^3 Cells | Tyrosinase 200 g Partic [5, 11]: 6447 dpm/hr/10^3 Cells and 6291 dpm/hr/10^3 Cells | Tyrosinase Cellular [5, 11]: 13838 dpm/hr/10^3 Cells and 14716 dpm/hr/10^3 Cells | Tyrosinase Cellular ([5]; Black-Neonatal-NHEM, 1 mM): 10679 dpm/hr/10^3 cells | Tyrosinase Cellular relative to Control ([5]; Black-Neonatal-NHEM, 1 mM): 1.08 X | Tyrosinase In Situ ([5]; Black-Neonatal-NHEM, 1 mM): 13.9 dpm/hr/10^3 cells | Tyrosinase In Situ relative to Control ([5]; Black-Neonatal-NHEM, 1 mM): 1.11 X | Tyrosinase Media relative to Control ([5]; Black-Neonatal-NHEM, 1 mM): 2.41 X | Tyrosinase Media ([5]; Black-Neonatal-NHEM, 1 mM, media from 1 day treatment period): 26.8 dpm/hr/10^3 cells | Tyrosinase Cellular ([5]; Black-Neonatal-NHEM, 5 mM): 15398 dpm/hr/10^3 cells | Tyrosinase Cellular relative to Control ([5]; Black-Neonatal-NHEM, 5 mM): 1.56 X | Tyrosinase In Situ ([5]; Black-Neonatal-NHEM, 5 mM): 14.1 dpm/hr/10^3 cells | Tyrosinase In Situ relative to Control ([5]; Black-Neonatal-NHEM, 5 mM): 1.13 X | Tyrosinase Media relative to Control ([5]; Black-Neonatal-NHEM, 5 mM): 2.99 X | Tyrosinase Media ([5]; Black-Neonatal-NHEM, 5 mM, media from 1 day treatment period): 33.2 dpm/hr/10^3 cells | Tyrosinase 17300 g Partic ([5]; Post 200 X g, 5 day treatment, concentrations as E130): 493 dpm/hr/10^3 Cells and 473 dpm/hr/10^3 Cells | Tyrosinase Media ([5]; Post 17300 X g, 5 day treatment, concentrations as E130): 4164 dpm/hr/10^3 Cells and 4639 dpm/hr/10^3 Cells | Tyrosinase Cellular ([5]; White-Adult-NHEM, 1 mM): 12740 dpm/hr/10^3 cells | Tyrosinase Cellular relative to Control ([5]; White-Adult-NHEM, 1 mM): 0.91 X | Tyrosinase In Situ ([5]; White-Adult-NHEM, 1 mM): 6.27 dpm/hr/10^3 cells | Tyrosinase In Situ relative to Control ([5]; White-Adult-NHEM, 1 mM): 1.13 X | Tyrosinase Media relative to Control ([5]; White-Adult-NHEM, 1 mM): 0.82 X | Tyrosinase Media ([5]; White-Adult-NHEM, 1 mM, media from 1 day treatment period): 29.9 dpm/hr/10^3 cells | Tyrosinase Cellular ([5]; White-Adult-NHEM, 5 mM): 18467 dpm/hr/10^3 cells | Tyrosinase Cellular relative to Control ([5]; White-Adult-NHEM, 5 mM): 1.32 X | Tyrosinase In Situ ([5]; White-Adult-NHEM, 5 mM): 5.81 dpm/hr/10^3 cells | Tyrosinase In Situ relative to Control ([5]; White-Adult-NHEM, 5 mM): 1.04 X | Tyrosinase Media relative to Control ([5]; White-Adult-NHEM, 5 mM): 1.46 X | Tyrosinase Media ([5]; White-Adult-NHEM, 5 mM, media from 1 day treatment period): 53.1 dpm/hr/10^3 cells | Tyrosinase 200 g Partic, relative to controls (in parentheses) ([5]; concentrations as E130): (18.6X) | Tyrosinase 17300 g Partic, relative to controls (in parentheses) ([5]; concentrations as E130): (4.22X) | Tyrosinase Cellular, relative to controls (in parentheses) ([5]; concentrations as E130): (1.40X) | Tyrosinase In Situ, relative to controls (in parentheses) ([5]; concentrations as E130): (1.57X) | Tyrosinase Media, relative to controls (in parentheses) ([5]; concentrations as E130): (2.83X)
